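Growth conditions: 96-well plates. Treatment: test compound, 48 hours, 5 concentrations. Analysis: linear interpolation between bracketing concentrations; unreached endpoints set to highest concentration. Abbreviation: GI50, concentration required for 50% inhibition of growth.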 Active and inactive are the calls of the source. Rule as the data show it: active = GI50 up to about 1.1 µM and inactive = higher.
What was measured:
Assay in all cases: growth of human tumour cells (NCI), 48 h
MDA-MB-231 = tested on: MDA-MB-231
T47D = tested on: T47D
UO-31 = tested on: UO-31
NCI-H23 = tested on: NCI-H23
HCC 2998 = tested on: HCC 2998
UACC-257 = tested on: UACC-257
IGROV-1 = tested on: IGROV-1
OVCAR-3 = tested on: OVCAR-3
SNB-19 = tested on: SNB-19
NCI-H226 = tested on: NCI-H226
COLO 205 = tested on: COLO 205
MCF7 = tested on: MCF7
Hs-578T = tested on: Hs-578T
BT-549 = tested on: BT-549
LOX IMVI = tested on: LOX IMVI
KM12 = tested on: KM12
HT-29 = tested on: HT-29
ACHN = tested on: ACHN
M14 = tested on: M14
MDA-N = tested on: MDA-N

| SMILES | GI50 (MDA-MB-231) | GI50 (T47D) | GI50 (UO-31) | GI50 (NCI-H23) | GI50 (HCC 2998) | GI50 (UACC-257) | GI50 (IGROV-1) | GI50 (OVCAR-3) | GI50 (SNB-19) | GI50 (NCI-H226) | GI50 (COLO 205) | GI50 (MCF7) | GI50 (Hs-578T) | GI50 (BT-549) | GI50 (LOX IMVI) | GI50 (KM12) | GI50 (HT-29) | GI50 (ACHN) | GI50 (M14) | GI50 (MDA-N) |
| --- | --- | --- | --- | --- | --- | --- | --- | --- | --- | --- | --- | --- | --- | --- | --- | --- | --- | --- | --- | --- |
| CC(O)CCC(=O)c1ccoc1 (stereo not drawn) | > 7830 µM (inactive) | 5010 µM (inactive) | 3390 µM (inactive) | 8110 µM (inactive) | 8610 µM (inactive) | 5130 µM (inactive) | 7290 µM (inactive) | 3610 µM (inactive) | 7000 µM (inactive) | 5610 µM (inactive) | 5580 µM (inactive) | 5680 µM (inactive) | 5120 µM (inactive) | 2920 µM (inactive) | 6030 µM (inactive) | 7710 µM (inactive) | 8450 µM (inactive) | 5640 µM (inactive) | > 9420 µM (inactive) | – |
| CCC(=O)Nc1ccc(/N=N/N(C)C)cc1 | > 100 µM (inactive) | 6.64 µM (inactive) | > 100 µM (inactive) | 7.26 µM (inactive) | 1.66 µM (inactive) | > 100 µM (inactive) | 2.87 µM (inactive) | – | > 100 µM (inactive) | > 100 µM (inactive) | 63.4 µM (inactive) | > 100 µM (inactive) | > 100 µM (inactive) | > 100 µM (inactive) | 50.9 µM (inactive) | – | > 100 µM (inactive) | > 100 µM (inactive) | > 100 µM (inactive) | – |
| C#CC(C)(C)OCCCCOc1cc(O)c2c(=O)c3ccccc3n(C)c2c1 | – | – | > 100 µM (inactive) | > 100 µM (inactive) | 66.1 µM (inactive) | > 100 µM (inactive) | > 100 µM (inactive) | > 100 µM (inactive) | > 100 µM (inactive) | > 100 µM (inactive) | 23.7 µM (inactive) | – | – | – | > 100 µM (inactive) | 97.9 µM (inactive) | 21.7 µM (inactive) | > 100 µM (inactive) | 87.9 µM (inactive) | – |
| CC(=O)NNc1nc(C)c(C(=O)NNC(=O)C(=O)Nc2ccc([N+](=O)[O-])cc2C#N)s1 | – | – | > 100 µM (inactive) | 96.4 µM (inactive) | > 100 µM (inactive) | > 100 µM (inactive) | > 100 µM (inactive) | 63.5 µM (inactive) | > 100 µM (inactive) | > 100 µM (inactive) | > 100 µM (inactive) | – | – | – | 52.7 µM (inactive) | > 100 µM (inactive) | > 100 µM (inactive) | 83.6 µM (inactive) | > 100 µM (inactive) | – |
| CNC(=O)/C(C#N)=C(\N)N1CCCC1 | > 100 µM (inactive) | > 100 µM (inactive) | > 100 µM (inactive) | > 100 µM (inactive) | > 100 µM (inactive) | – | > 100 µM (inactive) | > 100 µM (inactive) | > 100 µM (inactive) | > 100 µM (inactive) | > 100 µM (inactive) | – | > 100 µM (inactive) | – | – | > 100 µM (inactive) | > 100 µM (inactive) | > 100 µM (inactive) | – | > 100 µM (inactive) |
| CC(=O)OCCOCNC(=S)N/N=C(\C)c1cnccn1 | – | – | 18.9 µM (inactive) | 58.2 µM (inactive) | 29 µM (inactive) | 43.1 µM (inactive) | 26.9 µM (inactive) | 23.7 µM (inactive) | 73.1 µM (inactive) | 28.1 µM (inactive) | 28.1 µM (inactive) | – | – | – | 57.1 µM (inactive) | 43.3 µM (inactive) | 41 µM (inactive) | 13.6 µM (inactive) | 17.1 µM (inactive) | – |
| CCCCC1Cc2ccccc2-c2n1c1ccccc1[n+]2C (stereo not drawn) | 22.2 µM (inactive) | 0.959 µM (active) | 66.7 µM (inactive) | 2.17 µM (inactive) | 5.47 µM (inactive) | 1.87 µM (inactive) | 17.3 µM (inactive) | 4.15 µM (inactive) | – | 22.3 µM (inactive) | – | 8.77 µM (inactive) | 12.1 µM (inactive) | – | 10.4 µM (inactive) | 9.55 µM (inactive) | 10 µM (inactive) | 37.9 µM (inactive) | 23.3 µM (inactive) | 12.3 µM (inactive) |
| Cc1cc(C)nc(/C(=N\NC(N)=O)C(=O)Nc2nc3ccc(C)cc3s2)c1 | – | – | > 100 µM (inactive) | > 100 µM (inactive) | > 100 µM (inactive) | > 100 µM (inactive) | > 100 µM (inactive) | > 100 µM (inactive) | > 100 µM (inactive) | > 100 µM (inactive) | > 47.8 µM (inactive) | – | – | – | > 46.6 µM (inactive) | > 100 µM (inactive) | > 77.3 µM (inactive) | > 100 µM (inactive) | > 100 µM (inactive) | – |
| CC(=O)N1c2ccccc2C23CCN(C)CC4C(C)OCC(C4CC2=O)C13 (stereo not drawn) | > 100 µM (inactive) | > 100 µM (inactive) | > 100 µM (inactive) | > 100 µM (inactive) | > 100 µM (inactive) | > 100 µM (inactive) | > 100 µM (inactive) | – | > 100 µM (inactive) | > 100 µM (inactive) | > 100 µM (inactive) | > 100 µM (inactive) | > 100 µM (inactive) | > 100 µM (inactive) | > 100 µM (inactive) | > 100 µM (inactive) | > 100 µM (inactive) | > 100 µM (inactive) | > 100 µM (inactive) | – |
| CCC1=C(C)/C(=C/c2[nH]c(C(Br)Br)c(CC)c2C)N=C1C(Br)Br | – | – | 20.7 µM (inactive) | 32.4 µM (inactive) | 12.8 µM (inactive) | 19.9 µM (inactive) | 23.9 µM (inactive) | 23.2 µM (inactive) | 33.3 µM (inactive) | 20.1 µM (inactive) | 5.87 µM (inactive) | – | – | – | 21.2 µM (inactive) | 19.1 µM (inactive) | 28.5 µM (inactive) | 14.6 µM (inactive) | 55.7 µM (inactive) | – |
| CC1CC(N)=Nc2ccccc2N1 (stereo not drawn) | > 100 µM (inactive) | – | > 100 µM (inactive) | > 100 µM (inactive) | > 100 µM (inactive) | > 100 µM (inactive) | 54.2 µM (inactive) | > 100 µM (inactive) | > 100 µM (inactive) | > 100 µM (inactive) | > 100 µM (inactive) | – | > 100 µM (inactive) | > 100 µM (inactive) | > 100 µM (inactive) | > 100 µM (inactive) | > 100 µM (inactive) | > 100 µM (inactive) | > 100 µM (inactive) | > 100 µM (inactive) |
| N#CCN(Cc1ccccc1)[C@H]1CCC[C@]1(O)/C=C/c1ccc2c(c1)OCO2 | 21.4 µM (inactive) | 19.3 µM (inactive) | 27.2 µM (inactive) | 24.9 µM (inactive) | 18.4 µM (inactive) | 22.7 µM (inactive) | 23.1 µM (inactive) | 5.41 µM (inactive) | 25.2 µM (inactive) | 18.4 µM (inactive) | 15.6 µM (inactive) | 18.7 µM (inactive) | 17.2 µM (inactive) | – | 15.7 µM (inactive) | 20 µM (inactive) | 16 µM (inactive) | 42 µM (inactive) | 16.5 µM (inactive) | 17.6 µM (inactive) |
| CC/C=C/C(=O)CC(O)(C(F)(F)F)C(F)(F)F | > 100 µM (inactive) | 82.2 µM (inactive) | 54 µM (inactive) | > 100 µM (inactive) | > 100 µM (inactive) | > 100 µM (inactive) | > 100 µM (inactive) | – | > 100 µM (inactive) | > 100 µM (inactive) | > 100 µM (inactive) | > 100 µM (inactive) | 19 µM (inactive) | – | > 100 µM (inactive) | > 100 µM (inactive) | > 100 µM (inactive) | > 100 µM (inactive) | > 100 µM (inactive) | – |
| c1ccc(CNc2ncnc3nn[nH]c23)cc1 | > 100 µM (inactive) | > 100 µM (inactive) | 91 µM (inactive) | > 100 µM (inactive) | > 100 µM (inactive) | > 100 µM (inactive) | > 100 µM (inactive) | > 100 µM (inactive) | > 100 µM (inactive) | > 100 µM (inactive) | > 100 µM (inactive) | > 100 µM (inactive) | – | – | > 100 µM (inactive) | > 100 µM (inactive) | > 100 µM (inactive) | > 100 µM (inactive) | > 100 µM (inactive) | > 100 µM (inactive) |
| CC(=O)NNC1=NN(C(C)=O)C2(S1)C(=O)Nc1ccc(Br)cc12 (stereo not drawn) | > 100 µM (inactive) | 22 µM (inactive) | 39.4 µM (inactive) | > 100 µM (inactive) | > 100 µM (inactive) | > 100 µM (inactive) | 35.9 µM (inactive) | > 100 µM (inactive) | > 100 µM (inactive) | > 100 µM (inactive) | > 10 µM (inactive) | > 100 µM (inactive) | > 100 µM (inactive) | 59.6 µM (inactive) | > 100 µM (inactive) | > 100 µM (inactive) | > 100 µM (inactive) | > 100 µM (inactive) | > 100 µM (inactive) | – |
| OC[C@H]1C[C@@H]2Cc3ccccc3N2N1 | > 100 µM (inactive) | > 100 µM (inactive) | – | > 100 µM (inactive) | > 100 µM (inactive) | > 100 µM (inactive) | > 100 µM (inactive) | > 100 µM (inactive) | > 100 µM (inactive) | > 100 µM (inactive) | > 100 µM (inactive) | – | > 100 µM (inactive) | – | > 100 µM (inactive) | > 100 µM (inactive) | > 100 µM (inactive) | > 100 µM (inactive) | > 100 µM (inactive) | > 100 µM (inactive) |
| CC(=O)c1c2c(cc3c1CC1(Cc4cc5c(cc4C1)C(=O)CCC5)C3)CCCC2 (stereo not drawn) | 9.25 µM (inactive) | 5.38 µM (inactive) | 9.4 µM (inactive) | 6.12 µM (inactive) | 12.5 µM (inactive) | 3.34 µM (inactive) | 3.45 µM (inactive) | 7.59 µM (inactive) | 13.8 µM (inactive) | 3.5 µM (inactive) | 4.86 µM (inactive) | 4.49 µM (inactive) | > 29.9 µM (inactive) | – | 7.18 µM (inactive) | 5.3 µM (inactive) | 3.25 µM (inactive) | 2.97 µM (inactive) | 7.8 µM (inactive) | 2.87 µM (inactive) |

Reference: ChEMBL document CHEMBL1201862, “PubChem BioAssay data set” (2004)
